PMC12030534, “Population Pharmacokinetic Modeling of Total and Unbound Pamiparib in Glioblastoma Patients: Insights into Drug Disposition and Dosing Optimization” (Pharmaceutics, 2025)
Values joined by “and” are separate entries in the source; they are usually repeats but may differ in a detail not shown here. Equal entries are not always repeated. Where two headings read alike, the source gives them in different places. Marks after values point to notes of the source that are not given here.

Tests used:
SCLC PDX models = tested on: SCLC PDX models; design: method as in PMID 29330466; settings: imaging, cited from earlier work
PARP [1] = tested on: PARP; design: method as in PMID 33264017; settings: used as denominator of target engagement ratio; read-out: IC50 for PARP inhibition; cited from earlier work
[2] = Population PK model of total and unbound pamiparib plasma concentrations in glioblastoma patients (Monolix; bootstrap evaluation); format: in vivo, human; design: Ka_SD: unit not given here; settings: for fraction unbound: oral, 60 mg, read-out: θ4 (Fu); for IIV of CL/F / IIV of Ka / IIV of V/F: (% RSE)
Procedure: The total and unbound pamiparib plasma concentration data used in the population PK analysis were obtained from a phase 0/II study (ClinicalTrials.gov ID: NCT04614909), which enrolled 41 patients with newly diagnosed or recurrent glioblastoma. The protocols were approved by the Institutional Review Board of the Barrow Neurological Institute. Written informed consent was obtained from all participants.
The patients received oral pamiparib (60 mg twice daily) for three days before undergoing surgical tumor resection. Blood samples were collected at predose and at 0.5, 1, 2, 4, 7, and 24 h following the 9th oral dose. Plasma was separated from whole blood by centrifugation at 1000× g and 4 °C for 10 min and then stored at −80 °C until analysis. The total and unbound pamiparib concentrations in plasma samples were quantified using a validated liquid chromatography coupled with tandem mass spectrometry (LC-MS/MS) method.
The population PK model was developed in two steps: (1) basic (structural) model development and (2) covariate model development. All analyses were performed using the nonlinear mixed-effects modeling program MONOLIX version 2024R1 (Lixoft, Antony, France).
The structural model was developed to simultaneously characterize total and unbound pamiparib plasma concentration–time profiles following an oral administration of 9 doses (60 mg, twice daily) in individual glioblastoma patients. A one-compartment model with first-order absorption (without lag time) and first-order elimination was selected to describe the multiple-dose plasma concentration–time data. The primary PK parameters included apparent oral clearance (CL/F), apparent volume of distribution (V/F), absorption rate constant (Ka), and fraction of unbound drug in plasma (Fu). The relationship between total (Cp) and unbound (Cu) drug concentrations was incorporated into the model using the equation Cu = Cp × Fu. All concentration data were log-transformed to stabilize variance and improve model fitting. Population mean PK parameters, interindividual variability, and residual error were assessed in the population PK model. Interindividual variability was modeled using an exponential function, assuming log-normal distribution for all PK parameters.
Various residual error models, including constant, proportional, and combined error models, were evaluated. The combined model, incorporating both proportional and additive error components, was selected as the optimal error model (Equation (1)).(1) yi,j=fti,j,ψi+g(ti,j,ψi,ξ)εi,j Here, ψi is the parameter vector of the structural model f for individual i , and the residual error model is defined by the function g that depends on an additional parameter vector ξ . The residual errors εi,j are standardized Gaussian random variables with a mean of 0 and a standard deviation of 1. In this analysis, the combined error model was defined as g=a+bf^c , where the function g consists of a constant term, a, and a term proportional to the structural model f , with b as the proportionality constant. The parameter vector ξ includes a and b, while c is fixed at 1 by default.
Population mean PK parameters were estimated using the Stochastic Approximation Expectation–Maximization (SAEM) algorithm, a robust method for handling complex nonlinear mixed-effects models. Individual patients’ PK parameter estimates were obtained through post hoc Bayesian estimation, utilizing the conditional distributions derived from the Markov Chain Monte Carlo (MCMC) procedure.
The covariate model was developed using a stepwise approach to systematically identify and incorporate significant covariate effects. Initial screening for potential covariates was conducted using generalized additive modeling (GAM) with R version 4.4.1. The candidate covariates, listed in Table 1, were evaluated based on their relationship with Bayesian-estimated individual pharmacokinetic (PK) parameters from the structural model, including CL/F, V/F, Ka, and Fu. […]

[3] = human liver microsomes; cited from earlier work
[4] = design: method as in PMID 33876576; settings: cited from earlier work
[5] = cited from earlier work
P-glycoprotein (P-gp) = tested on: P-glycoprotein (P-gp); design: method as in PMID 32652442, PMID 39575553; settings: cited from earlier work
[6] = cited from earlier work; remark: listed apart in the source
PARP [7] = tested on: PARP; design: method as in PMID 23118055; settings: cited from earlier work
ABCG2 = tested on: ABCG2; design: method as in PMID 32652442, PMID 39575553; settings: cited from earlier work
[8] = total pamiparib, base model, 60 mg twice daily oral
[9] = total pamiparib, base model, population mean (% RSE)
[10] = total pamiparib, bootstrap mean
[11] = total pamiparib, final covariate model
[12] = total pamiparib, final covariate model, population mean
[13] = total pamiparib, final covariate model, population mean (% RSE in Table 2)
[14] = unbound pamiparib, base model, population mean (% RSE)
[15] = unbound pamiparib, bootstrap mean
[16] = unbound pamiparib, final covariate model
[17] = unbound pamiparib, final covariate model, population mean
[18] = unbound pamiparib, final covariate model, population mean (% RSE in Table 2)

## O=C(c1cc(Cc2n[nH]c(=O)c3ccccc23)ccc1F)N1CCN(C(=O)C2CC2)CC1 [olaparib]
SCLC PDX models; ~5-fold of ED50
  dose for complete target engagement: 15 mg/kg
SCLC PDX models
  dose for 50% target engagement (ED50): 3.17 mg/kg

## C[C@]12CCCN1CC1=NNC(=O)c3cc(F)cc4[nH]c2c1c34 [pamiparib]
PARP [1]
  IC50: ~1 nM and 1 nM
[2]; human, plasma, total pamiparib, base model, population mean (% RSE)
  fraction unbound: 0.042
[2]; human, plasma, total pamiparib, bootstrap mean
  fraction unbound: 0.041
[2]; human, plasma, total pamiparib, final covariate model, population mean (% RSE in Table 2)
  fraction unbound: 0.041
[2]; human, plasma, unbound pamiparib, base model, population mean (% RSE)
  fraction unbound: 0.042
[2]; human, plasma, unbound pamiparib, bootstrap mean
  fraction unbound: 0.041
[2]; human, plasma, unbound pamiparib, final covariate model, population mean (% RSE in Table 2)
  fraction unbound: 0.042
[2]; human, plasma, glioblastoma patients, 60 mg twice daily oral, read-out: population mean elimination half-life (T1/2) (converted)
  half-life: ~12 h
[2]; [8]
  TV_CL/F: 2.73 L/h
  TV_V/F: 44 L
[2]; total pamiparib, base model, 60 mg twice daily oral, glioblastoma patients
  TV_KA: 1.64 h⁻¹
[2]; total pamiparib, base model
  IIV of CL/F: 53 (11) %
  IIV of Ka: 397 (18) %
  IIV of V/F: 53 (16) %
[2]; total pamiparib, base model, fraction unbound in plasma
  TV_Fu: 0.042
[2]; [9]
  θ1 (Ka): 1.64 (42) h^−1
  θ2 (V/F): 44 (9.7) L
  θ3 (CL/F): 2.73 (8.0) L/h
[2]; [10]
  Fu_SD: 0.11
  Ka_SD: 1.6
  V/F_SD: 0.35
  β1 (PCC): 0.0089
  β2 (Age): −0.017
  θ2 (V/F): 17 L
[2]; total pamiparib, bootstrap mean (500 replicates)
  θ1 (Ka): 1.71 h⁻¹
[2]; total pamiparib, final covariate model, 60 mg twice daily oral
  TV_KA: 1.58 h⁻¹
[2]; [11]
  IIV of CL/F: 50% and 50 (11) %
  IIV of Ka: 410 (20) %
  IIV of V/F: 41 (17) %
[2]; total pamiparib, final covariate model, at median PCC 111.5
  TV_V/F: 44 L and 44 ^† L
[2]; total pamiparib, final covariate model, at median age 60
  TV_CL/F: 2.59 L/h and 2.59 ^‡ L/h
[2]; total pamiparib, final covariate model, fraction unbound in plasma
  TV_Fu: 0.041
[2]; [12]
  Fu_SD: 0.12
  Ka_SD: 1.7
  V/F_SD: 0.39
[2]; [13]
  θ1 (Ka): 1.58 (42) h^−1 and 1.58 h^−1
  θ2 (V/F): 15 (28) L and 15 L
[2]; unbound pamiparib, base model
  TV_CL/F: 65.0 L/h
  TV_Fu: 0.042
  TV_V/F: 1017 L
  IIV of CL/F: 54 (11) %
  IIV of Ka: 612 (21) %
  IIV of V/F: 50 (17) %
[2]; unbound pamiparib, base model, 60 mg twice daily oral
  TV_KA: 1.55 h⁻¹
[2]; [14]
  θ1 (Ka): 1.55 (51) h^−1
  θ2 (V/F): 1017 (9.1) L
  θ3 (CL/F): 65.0 (8.2) L/h
[2]; [15]
  Fu_SD: 0.11
  Ka_SD: 1.66
  V/F_SD: 0.35
  β1 (PCC): 0.0083
  β2 (Age): −0.016
  θ2 (V/F): 441 L
[2]; unbound pamiparib, bootstrap mean (500 replicates)
  θ1 (Ka): 1.86 h⁻¹
[2]; [16]
  TV_Fu: 0.042
  TV_KA: 1.7 h⁻¹
  IIV of CL/F: 52(11) %
  IIV of Ka: 380 (20) %
  IIV of V/F: 41 (19) %
[2]; unbound pamiparib, final covariate model, at median PCC 111.5
  TV_V/F: 1060 ^† L
[2]; unbound pamiparib, final covariate model, at median age 60
  TV_CL/F: 62.5 ^‡ L/h
[2]; [17]
  Fu_SD: 0.11
  Ka_SD: 1.66
  V/F_SD: 0.39
[2]; [18]
  θ1 (Ka): 1.7 (44) h^−1 and 1.7 h^−1
  θ2 (V/F): 402 (28) L and 402 L
[3]
  intrinsic clearance: low
[4]; pamiparib and its metabolites
  fecal excretion, share of total radioactivity: ~27%
  renal excretion, share of total radioactivity: approximately 58%
[4]; patients with solid tumors
  unchanged pamiparib as share of total radioactivity in plasma: 67%
[5]
  maximum tolerated dose in monotherapy: 60 mg BID
[5]; first in-human study BGB-290-AU-002
  T1/2: 13 h
P-glycoprotein (P-gp)
  substrate of P-glycoprotein (P-gp) / ABCB1: not a substrate
[6]
  LogP: 2.03
PARP [7]; compared with other PARP inhibitors
  PARP trapping potency: surpassing olaparib and rucaparib but slightly weaker than niraparib and much weaker than talazoparib
ABCG2
  substrate of efflux transporter ABCG2: not a substrate

## Cn1ncnc1[C@H]1c2n[nH]c(=O)c3cc(F)cc(c23)N[C@@H]1c1ccc(F)cc1 [talazoparib]
PARP [7]
  PARP trapping potency relative to olaparib: ~ 100 fold

## oxy-dehydro pamiparib [M3]
[4]; human plasma, urine, and feces
  metabolite abundance: most abundant metabolite
